# According to US20100144820A1, “THERAPEUTIC HPPH DOSAGE FOR PDT” (Health Research, Inc., priority 2007, published 2010):
# Values joined by “and” are separate entries in the source; they are usually repeats but may differ in a detail not shown here. Equal entries are not always repeated. “Also recorded” adds a separate entry of the source. Where two headings read alike, the source gives them in different places.
# Tests used:
# tumor [1] = settings: of body weight; cited from earlier work
# skin = settings: cited from earlier work
# [2] = test system: advanced obstructive endobronchial lung cancer; experiment: Palliative treatment of advanced obstructive endobronchial lung cancer; type: in vivo, human; settings: 0.1 mg/kg; for 2 Month FU response (patients) / Long Term FU outcome (patients): 48 HRS post injection
# Procedure: Palliative Treatment of Advanced Obstructive Endobronchial Lung Cancer For relief in breathing only. Long term responses not expected due to most patients having wide spread disease outside of the area treated by HPPH in the Bronchus. All HPPH doses were 0.1 mg/kg with exposure of 100 to 140 Joules per cm of diffusion fiber at 665±5 nm Light Energy 48 HRS Post Injection.
# [3] = test system: high grade dysplasia-carcinoma in Barrett's Esophagus; experiment: HPPH PDT of high grade dysplasia-carcinoma in Barrett's Esophagus; type: in vivo, human
# Excerpt: Use of HPPH Photodynamic Therapy for treatment of high grade dysplasia-carcinoma in Barrett's Esophagus. All energy was at 175 Joules/cm at 665±5 nm Light Energy 48 HRS Post Injection. This was a single treatment. Based on studies with PHOTOFRIN®, it is expected that three treatments, instead of just one, would result in about an 77% cure rate.
# dogs = settings: cited from earlier work
# basal cell carcinoma = experiment: Photodynamic therapy for treatment of basal cell carcinoma using HPPH; type: in vivo, human
# Excerpt: Table 1 gives results of a study of Photodynamic Therapy for the treatment of basal cell carcinoma using 2-(1-hexyloxyethyl)-2-devinyl pyropheophorbide-a (HPPH).
# All dose data converted from actual drug dose in milligrams per square meter of surface area of patient assuming a 70 kg patient having a 2 m^2 surface area.
# tumor [4] = settings: mice, 0.05 to 0.3 mg/kg, 135 Joules/cm^2; cited from earlier work
# bronchiogenic carcinoma = experiment: Interluminal HPPH-PDT treatment of bronchiogenic carcinoma; type: in vivo, human; settings: 0.1 mg/kg, 75-85 J/cm, 48 HRS post injection
# Excerpt: Dosages are in Joules per cm length of light delivering optical fiber.
# normal skin tissue = experiment: Adverse effects for normal skin tissue exposed to 133 Joules/cm^2; type: in vivo, human; set-up: key: 1: faint erythema; 2: minimal erythema with sharp borders; 3: pronounced erythema without edema; 6: more than 10% of toxic dose causing peripheral neuropathy in animals; settings: normal skin exposed to 133 Joules/cm^2
# Procedure: Adverse effects for normal skin tissue when exposed to 133 Joules/cm^2 (approximately equivalent to 30 minutes of midday sun exposure in Northeastern United States): 1=faint erythema; 2=minimal erythema with sharp borders; 3=pronounced erythema without edema; 6- more than 10% of toxic dose causing peripheral neuropathy in animals.
# [5] = 0.075 mg/kg, 175 Joules/cm, 48 HRS post injection, single treatment
compound,measurement,setting,value
porfimer sodium [PHOTOFRIN],Lowest reasonable effective dose / required dose,tumor [1],2 mg/kg
same,Reported phototoxicity,"skin; 2 mg/kg dose, exposure to only 9 Joules/cm^2 of activating light",very serious erythema and necrosis
Oc1cccc(-c2c3nc(c(-c4cccc(O)c4)c4ccc([nH]4)c(-c4cccc(O)c4)c4nc(c(-c5cccc(O)c5)c5ccc2[nH]5)CC4)C=C3)c1 [FOSCAN],Reported phototoxicity,skin; 30 minute sun exposure a full week after injection,serious erythema
"CCCCCCOC(C)c1c(C)c2cc3nc(c4c5[nH]c(cc6nc(cc1[nH]2)C(C)=C6CC)c(C)c5C(=O)C4)C(CCC(=O)O)C3C (stereo not drawn) [HPPH, 2-(1-hexyloxy)-2-ethyl-derivative of pyropheophorbide-a]",2 Month FU response (patients),[2]; 100 J/cm,1 CR/2 PR
same,Long Term FU outcome (patients),[2]; 100 J/cm,1 disease
same,Outcome upon long term follow up,[2]; 100 to 140 Joules per cm,one was disease free
same,Systemic or phototoxic side effects,[2]; 100 to 140 Joules per cm,No observable systemic or phototoxic side effects
same,2 Month FU response (patients),[2]; 110 J/cm,3 PR
same,2 Month FU response (patients),[2]; 130 J/cm,2 CR/1 PR
same,Long Term FU outcome (patients),[2]; 130 J/cm,2 new
same,2 Month FU response (patients),[2]; 140 J/cm,1 CR
same,Long Term FU outcome (patients),[2]; 140 J/cm,1 new
same,Palliative response (improved ability to breathe),"[2]; all cases, 100 to 140 Joules per cm",at least partial palliative response
same,2 mo/FU response (patients),[3]; [5],3 PR/2 CR
same,Long Term/FU response (patients),[3]; [5],3 PR/2 CR
same,2 mo/FU response (patients),"[3]; 0.1 mg/kg, 175 Joules/cm, 48 HRS post injection, single treatment",4 PR/3 CR
same,Expected cure rate,"[3]; three treatments instead of one, expected based on studies with PHOTOFRIN",~77%
same,Toxicity finding at lowest toxic dose,"dogs; about 1.5 mg/kg in 0.1% Tween 80, test animals, toxicity said due to surfactant",neuropathy is common
same,Lowest toxic dose,"dogs; in 0.1% Tween 80 (polysorbate 80) surfactant solution, dogs",about 1.5 mg/kg
same,Result of treatment of basal cell carcinoma,"basal cell carcinoma; 0.05 mg/kg*, 150 J/cm^2 @24 hr*, interpolated from 48 hr data",Complete
same,Result of treatment of basal cell carcinoma,"basal cell carcinoma; 0.05 mg/kg*, 200 J/cm^2 @24 hr*, interpolated from 48 hr data",Complete
same,Result of treatment of basal cell carcinoma,"basal cell carcinoma; 0.07 mg/kg*, 150 J/cm^2 @24 hr*, interpolated from 48 hr data",Complete
same,Result of treatment of basal cell carcinoma,"basal cell carcinoma; 0.07 mg/kg*, 200 J/cm^2 @24 hr*, interpolated from 48 hr data",Complete
same,Result of treatment of basal cell carcinoma,"basal cell carcinoma; 0.07 mg/kg, 50 J/cm^2 @24 hr",Fail and Partial and Complete
same,Result of treatment of basal cell carcinoma,"basal cell carcinoma; 0.07 mg/kg, 100 J/cm^2 @24 hr",Complete
same,Result of treatment of basal cell carcinoma,"basal cell carcinoma; 0.07 mg/kg, 150 J/cm^2 @48 hr",Complete
same,Result of treatment of basal cell carcinoma,"basal cell carcinoma; 0.07 mg/kg, 200 J/cm^2 @48 hr",Complete
same,Result of treatment of basal cell carcinoma,"basal cell carcinoma; 0.09 mg/kg, 50 J/cm^2 @24 hr",Partial; also recorded: Complete
same,Result of treatment of basal cell carcinoma,"basal cell carcinoma; 0.09 mg/kg, 100 J/cm^2 @24 hr",Complete; also recorded: Partial
same,Result of treatment of basal cell carcinoma,"basal cell carcinoma; 0.09 mg/kg, 150 J/cm^2 @48 hr",Complete
same,Result of treatment of basal cell carcinoma,"basal cell carcinoma; 0.09 mg/kg, 200 J/cm^2 @48 hr",Complete
same,Long term tumor response,tumor [4],no or extremely little long term tumor response
same,Systemic or phototoxic side effects,bronchiogenic carcinoma,No observable systemic or phototoxic side effects
same,Adverse Effects Noted,normal skin tissue; 0.05 mg/kg* (interpolated from 48 hr data),1
same,Adverse Effects Noted,normal skin tissue; 0.07 mg/kg* (interpolated from 48 hr data),1
same,Adverse Effects Noted,normal skin tissue; 0.07 mg/kg,1
same,Adverse Effects Noted,normal skin tissue; 0.09 mg/kg,1
same,Adverse Effects Noted,normal skin tissue; 0.12 mg/kg* control (interpolated from 48 hr data),3 and 2
same,Adverse Effects Noted,normal skin tissue; 0.17 mg/kg control,3-6 and 2-6
